Patent US11719488B2, “Lyophilization process and a teverelix-TFA lyophilizate obtained thereby” (Antev Limited, priority 2018, dated 2023)
Structures can show the parent of a compound that is named as a salt. Non-standard residues stand in square brackets, D forms with d. Residues, ends and D or L forms follow the SMILES beside them. dPhe(4-Cl) = N[C@H](Cc1ccc(Cl)cc1)C(=O)O; d2Nal = N[C@H](Cc1ccc2ccccc2c1)C(=O)O; d(hCit) = NC(=O)NCCCC[C@@H](N)C(=O)O; Lys(iPr) = CC(C)NCCCC[C@H](N)C(=O)O; d3Pal = N[C@H](Cc1cccnc1)C(=O)O

Experiment: Solubility of teverelix-TFA
Type: physicochemical

solubility in water: very low solubility in water
SMILES: CC(=O)N[C@H](Cc1ccc2ccccc2c1)C(=O)N[C@H](Cc1ccc(Cl)cc1)C(=O)N[C@H](Cc1cccnc1)C(=O)N[C@@H](CO)C(=O)N[C@@H](Cc1ccc(O)cc1)C(=O)N[C@H](CCCCNC(N)=O)C(=O)N[C@@H](CC(C)C)C(=O)N[C@@H](CCCCNC(C)C)C(=O)N1CCC[C@H]1C(=O)N[C@H](C)C(N)=O [Teverelix-TFA, Ac-D-Nal-D-pClPhe-D-Pal-Ser-Tyr-D-Hci-Leu-Lys(iPr)-Pro-D-Ala-NH2] (Ac-[d2Nal][dPhe(4-Cl)][d3Pal]SY[d(hCit)]L[Lys(iPr)]P[dA]-NH2)
